Results: patent publication US9408921B2, “Antineoplastic hydrogels, and enzyme-instructed preparations thereof” (Brandeis University, priority 2009, dated 2016)
“And” between values parts separate entries of the source, which are not always exact repeats. Equal entries are not always repeated. “Also recorded” adds a separate entry of the source. Where a SMILES comes first, the peptide text is derived from it. [ ]: non-standard residue; d: D form. The star is where a group is joined. Paclitaxel(2'-O-succinyl) = CC(=O)O[C@H]1C(=O)[C@@]2(C)[C@H]([C@H](OC(=O)c3ccccc3)[C@]3(O)C[C@H](OC(=O)[C@H](OC(=O)CCC(=O)*)[C@@H](NC(=O)c4ccccc4)c4ccccc4)C(C)=C1C3(C)C)[C@]1(OC(C)=O)CO[C@@H]1C[C@@H]2O; Acetyl(2-naphthyl) = O=C(Cc1ccc2ccccc2c1)*; pY = N[C@@H](Cc1ccc(OP(=O)(O)O)cc1)C(=O)O

Legend:
[1] = stability in water and in gel state; type: physicochemical
Source text: Nicolaou, K. C.; Guy, R. K.; Pitsinos, E. N.; Wrasidlo, W. Angew. Chem. Intl. Ed.

[2] = solubility; type: physicochemical
[3] = test system: HeLa cells; assay: cytotoxicity against HeLa cells
Source text: To evaluate the activity of 5a, it was used to treat HeLa cells; paclitaxel (1) was used as the control.

For `CC(=O)O[C@H]1C(=O)[C@@]2(C)[C@H]([C@H](OC(=O)c3ccccc3)[C@]3(O)C[C@H](OC(=O)[C@H](OC(=O)CCC(=O)NCCCC[C@H](NC(=O)[C@H](Cc4ccccc4)NC(=O)[C@H](Cc4ccccc4)NC(=O)Cc4ccc5ccccc5c4)C(=O)N[C@@H](Cc4ccc(OP(=O)(O)O)cc4)C(=O)O)[C@@H](NC(=O)c4ccccc4)c4ccccc4)C(C)=C1C3(C)C)[C@]1(OC(C)=O)CO[C@@H]1C[C@@H]2O` [Compound 5a] ({Acetyl(2-naphthyl)}-FFK(Paclitaxel(2'-O-succinyl))[pY]-OH), the stability in water ([1]; in water, without a phosphatase) was “hardly any dephosphorylation over months”, the solubility ([2]; 100 mM phosphate buffered saline (PBS) solution) was 7600 µg/mL and 4260 µM and the IC50 ([3]; HeLa cells, 48 h of incubation) was 9.97 ± 2.05 nM.
In the case of `CC(=O)O[C@H]1C(=O)[C@@]2(C)[C@H]([C@H](OC(=O)c3ccccc3)[C@]3(O)C[C@H](OC(=O)[C@H](OC(=O)CCC(=O)NCCCC[C@H](NC(=O)[C@H](Cc4ccccc4)NC(=O)[C@H](Cc4ccccc4)NC(=O)Cc4ccc5ccccc5c4)C(=O)N[C@@H](Cc4ccc(O)cc4)C(=O)O)[C@@H](NC(=O)c4ccccc4)c4ccccc4)C(C)=C1C3(C)C)[C@]1(OC(C)=O)CO[C@@H]1C[C@@H]2O` [Compound 5b] ({Acetyl(2-naphthyl)}-FFK(Paclitaxel(2'-O-succinyl))Y-OH), the “stability in gel state” value ([1]; gel state, mass spectroscopic (MS) analysis) is reported as “stable in gel state over weeks”, the solubility ([2]; in water) is reported as 21.6 µg/mL and 12.7 µM and the IC50 ([3]; HeLa cells, 48 h of incubation) is reported as 51.4 ± 7.69 nM.
In the case of `CC(=O)O[C@H]1C(=O)[C@@]2(C)[C@H]([C@H](OC(=O)c3ccccc3)[C@]3(O)C[C@H](OC(=O)[C@H](O)[C@@H](NC(=O)c4ccccc4)c4ccccc4)C(C)=C1C3(C)C)[C@]1(OC(C)=O)CO[C@@H]1C[C@@H]2O` [Compound 1, Paclitaxel, reference compound], the IC50 ([3]; Homo sapiens, HeLa, 48 h) is reported as 47.3 ± 2.99 nM.
With `NCCCC[C@H](NC(=O)[C@H](Cc1ccccc1)NC(=O)[C@H](Cc1ccccc1)NC(=O)Cc1ccc2ccccc2c1)C(=O)N[C@@H](Cc1ccc(OP(=O)(O)O)cc1)C(=O)O` [Compound 4, NapFFKYp] ({Acetyl(2-naphthyl)}-FFK[pY]-OH) the cytotoxicity in words ([3]; HeLa cells) was “essentially biocompatible; also recorded: very limited toxicity” and the IC50 ([3]; HeLa cells, 48 h, highest concentration tested 500 μM) was over 500000 nM.
